Laboratory results as given in US12139458B2, “(2,5-dioxopyrrolidin-1-yl)(phenyl)-acetamide derivatives and their use in the treatment of neurological diseases” (UNIWERSYTET JAGIELLONSKI, priority 2019, dated 2024).

How the values were obtained:
[1] = system: male Swiss albino mice (CD-1); experiment: Subcutaneous pentylenetetrazole seizure test (scPTZ); format: in vivo; conditions: 0.5 h, mice; for ED50 / responders at 100 mg/kg: Mus musculus, ip; for scPTZ: number of mice protected/number of mice tested / responders at 100 mg/kg: screening, 100 mg/kg i.p.; for responders at 100 mg/kg: read-out: scPTZ: number of mice protected/number of mice tested (converted)
Experimental: (§1) The male Swiss albino mice (CD-1) weighing 18-26 g were used. All procedures were carried out in accordance with applicable Polish and international guidelines on the ethics of animal testing, after obtaining appropriate institutional approval. The substances were administered intraperitoneally (i.p.), in 1% aqueous solution of Tween, as single injections with a volume of 10 ml/kg, 30 minutes before the given test. Screening was performed on groups consisted of 4 mice. The average effective dose (ED50) in given test and toxic dose in the rotarod test (TD50) was estimated based on the results obtained in 3-4 groups of animals consisting of 6 mice. All tests were carried out based on the procedures described in the specialist literature.
In the scPTZ test, seizures were induced by subcutaneous administration of pentylenetetrazole (PTZ) at a dose of 100 mg/kg. This caused clonic seizures with accompanying loss of the righting reflex. Test compounds were administered 30 minutes before the experiment. After PTZ administration, the animals were placed individually in transparent containers and observed for a period of 30 minutes for the occurrence of clonic seizures. During this time, the latency of the first onset of clonic seizures, defined as clonus of the whole body lasting at least 3 seconds with loss of the righting reflex and the number of seizure episodes during the test were noted and compared with control group. The absence of clonic convulsions within the observed time period was interpreted as the compound's ability to protect against PTZ-induced seizures (Ferreri, G.; Chimirri, A.; Russo, E.; Gitto, R.; Gareri, P.; De Sarro, A.; De Sarro, G. Pharmacol. Biochem. Behav. 2004, 77, 85-94; Łączkowski, K.; Sałat, K.; Misiura, K.; Podkowa, A.; Malikowska, N. J. Enzyme Inhib. Med. Chem. 2016, 31, 1576-82).
(§2) To perform a statistical evaluation of the results, one-way ANOVA variance analysis and Dunnett's post hoc test (multiple comparison test) were used. The value at the significance level p<0.05 was considered statistically significant.

[2] = Rotarod test (motor coordination); format: in vivo; conditions: male, Swiss albino (CD-1), mouse, in vivo, ip, mice
Experimental: as §1, with “All” for “The male Swiss albino mice (CD-1) weighing 18-26 g were used. All”, “The average effective dose (ED50) in given test and toxic dose in the rotarod test (TD50) was estimated based on the results obtained in 3-4 groups of animals consisting of 6 mice.” left out
Mice were trained the day before the actual experiment. They were placed individually on a 2 cm diameter rod rotating at 10 revolutions per minute (rpm). During each training session, the animals remained on the rod for 3 minutes. The experiment was carried out 30 minutes after administration of the compounds. Motor coordination was tested at the speed of the rotating bar: 10 rpm during 60 seconds. Motor impairments were defined as the inability to remain on the rotating rod for 1 min.
as §2

[3] = system: male Swiss albino mice (CD-1); experiment: Psychomotor seizure test 6 Hz (44 mA); format: in vivo; conditions: 0.5 h, mice; for 6 Hz (44 mA): number of mice protected/number of mice tested: screening, 100 mg/kg i.p.
Experimental: as §1, with “All” for “The male Swiss albino mice (CD-1) weighing 18-26 g were used. All”, “The average effective dose (ED50) in given test and toxic dose in the rotarod test (TD50) was estimated based on the results obtained in 3-4 groups of animals consisting of 6 mice.” left out
In the 6 Hz test, seizures were induced by an electric stimulus of 32 mA and/or 44 mA and a frequency of 6 pulses per second. […] Before starting the test, the eye surface was gently moistened with a solution of local anesthetic (1% lidocaine solution). The study was conducted 30 minutes after intraperitoneal administration of the compounds at various doses. An electrical pulse was delivered continuously for a period of 3 seconds, followed by observation of the animal for a period of 10 seconds. During this time, immobility or stun associated with rearing, forelimb clonus, twitching of the vibrissae and Straub's tail were observed. These symptoms persist throughout the observation period, indicating the occurrence of psychomotor seizures in mice.
as §2

[4] = system: male Swiss albino mice (CD-1); experiment: Psychomotor seizure test 6 Hz (32 mA); format: in vivo; conditions: 0.5 h, mice; for ED50 / responders at 100 mg/kg: Mus musculus, ip; for 6 Hz (32 mA): number of mice protected/number of mice tested / responders at 100 mg/kg: screening, 100 mg/kg i.p.; for responders at 100 mg/kg: read-out: 6 Hz (32 mA): number of mice protected/number of mice tested (converted)
Experimental: as §1
In the 6 Hz test, seizures were induced by an electric stimulus of 32 mA and/or 44 mA and a frequency of 6 pulses per second. An electrical pulse was generated using an electric shock generator (ECT Unit 57800; Ugo Basile, Gemonio, Italy) and delivered to the animal using ocular electrodes. Before starting the test, the eye surface was gently moistened with a solution of local anesthetic (1% lidocaine solution). The study was conducted 30 minutes after intraperitoneal administration of the compounds at various doses. An electrical pulse was delivered continuously for a period of 3 seconds, followed by observation of the animal for a period of 10 seconds. During this time, immobility or stun associated with rearing, forelimb clonus, twitching of the vibrissae and Straub's tail were observed. These symptoms persist throughout the observation period, indicating the occurrence of psychomotor seizures in mice. Mice resuming normal behavior within 10 s after stimulation were considered as protected (Barton, M. E.; Klein, B. D.; Wolf, H. H.; White, H. S. Epilepsy Res. 2001, 47, 217-227; Wojda, E.; Wlaź, A.; Patsalos, P. N.; Łuszczki, J. J. Epilepsy Res. 2009, 86, 163-174).
as §2

[5] = system: male Swiss albino mice (CD-1); experiment: Maximal electroshock seizure test (MES); format: in vivo; conditions: 0.5 h, mice; for ED50 / responders at 100 mg/kg: Mus musculus, ip; for responders at 100 mg/kg / MES: number of mice protected/number of mice tested: screening, 100 mg/kg i.p.; for responders at 100 mg/kg: read-out: MES: number of mice protected/number of mice tested (converted)
Experimental: as §1
In the MES test, the seizures were induced by an electrical stimulus lasting of 0.2 s duration, 500 V voltage and 25 mA intensity. The electrical stimuli was generated using an electric shock generator (Rodent shocker, Type 221, Hugo Sachs Elektronik, Germany) and delivered to the animal using electrodes placed on the auricles. The study was conducted 30 minutes after intraperitoneal administration of the compounds at various doses. During the experiment, the number of animals that experienced a seizure episode in the form of tonic extension of the hind limbs was counted (Kamiński, K.; Rapacz, A.; Łuszczki, J. J.; Latacz, G.; Obniska, J.; Kieć-Kononowicz, K.; Filipek, B. Bioorg. Med. Chem. 2015, 23, 2548-2561; Castel-Branco, M. M.; Alves, G. L.; Figueiredo, I. V.; Falcão, A. C.; Caramona, M. M. Methods Find. Exp. Clin. Pharmacol. 2009, 31, 101-106).
as §2

Compound	ED50 [1] [mg/kg]	scPTZ: number of mice protected/number of mice tested [1]	TD50 at 0.5 h [2] [mg/kg]	6 Hz (44 mA): number of mice protected/number of mice tested [3]	ED50 [4] [mg/kg]	6 Hz (32 mA): number of mice protected/number of mice tested [4]	melting point [°C]	ED50 [5] [mg/kg]	responders at 100 mg/kg [5] [%]	responders at 100 mg/kg [4] [%]	MES: number of mice protected/number of mice tested [5]	ED50 ([3]; Mus musculus, ip) [mg/kg]	responders at 100 mg/kg [1] [%]
O=C(C(c1ccccc1)N1C(=O)CCC1=O)N1CCN(c2ccccc2)CC1 (racemic) [Compound 2, 1-(2-Oxo-1-phenyl-2-(4-phenylpiperazin-1-yl)ethyl)pyrrolidine-2,5-dione]	100	¾	> 300	2/4	83.5	¾	156.7 to 157.4	91.1	100				
O=C(C(c1ccccc1)N1C(=O)CCC1=O)N1CCN(c2cccc(Cl)c2)CC1 (racemic) [Compound 3, 1-(2-(4-(3-Chlorophenyl)piperazin-1-yl)-2-oxo-1-phenylethyl)pyrrolidine-2,5-dione]	52.6	¾	144	¾	39.5		128.1 to 129	36.9	100	100			
O=C(C(c1ccccc1)N1C(=O)CCC1=O)N1CCN(c2cc(Cl)cc(Cl)c2)CC1 (racemic) [Compound 4, 1-(2-(4-(3,5-Dichlorophenyl)piperazin-1-yl)-2-oxo-1-phenylethyl)pyrrolidine-2,5-dione]	> 100	¾	> 300		17.7		163.8 to 165.2	68.5		100	¾		
Cc1cccc(N2CCN(C(=O)C(c3ccccc3)N3C(=O)CCC3=O)CC2)c1 (racemic) [Compound 5, 1-(2-Oxo-1-phenyl-2-(4-(m-tolyl)piperazin-1-yl)ethyl)pyrrolidine-2,5-dione]	57.6	¾	171	2/4	35.5		188.7 to 192.1	37.2		100	¾		
O=C(C(c1ccccc1)N1C(=O)CCC1=O)N1CCN(c2cccc(C(F)F)c2)CC1 (racemic) [Compound 9, 1-(2-Oxo-1-phenyl-2-(4-(3-(difluoromethyl)phenyl)piperazin-1-yl)ethyl)pyrrolidine-2,5-dione]	94.3		274		63		156.4 to 157.6	97.7				196	
O=C(C(c1ccccc1)N1C(=O)CCC1=O)N1CCN(c2cccc(OC(F)(F)F)c2)CC1 (racemic) [Compound 10, 1-(2-Oxo-1-phenyl-2-(4-(3-(trifluoromethoxy)phenyl)piperazin-1-yl)ethyl)pyrrolidine-2,5-dione]	< 60		74	¾	38.3		100.3 to 101.6	41.7	100	100			50
O=C(C(c1ccccc1)N1C(=O)CCC1=O)N1CCN(c2cccc(-c3ccccc3)c2)CC1 (racemic) [Compound 13, 1-(2-(4-([1,1′-Biphenyl]-3-yl)piperazin-1-yl)-2-oxo-1-phenylethyl)pyrrolidine-2,5-dione]	< 100		73.6	4/4	26.2		114.1 to 115.4	43.9	100	100			50
O=C(C(c1ccc(F)cc1)N1C(=O)CCC1=O)N1CCN(c2cccc(C(F)(F)F)c2)CC1 (racemic) [Compound 14, 1-(1-(4-Fluorophenyl)-2-oxo-2-(4-(3-(trifluoromethyl)phenyl)piperazin-1-yl)ethyl)pyrrolidine-2,5-dione]	< 100		> 300		48.3	¾	88.8 to 90.7	56.4	100				50
O=C([C@@H](c1ccccc1)N1C(=O)CCC1=O)N1CCN(c2cccc(Cl)c2)CC1 [(R)-3, (R)-1-(2-(4-(3-chlorophenyl)piperazin-1-yl)-2-oxo-1-phenylethyl)pyrrolidine-2,5-dione]	78.3	¾	223		49.3		167.3 to 168.1	57.7	100	100			
O=C([C@@H](c1ccccc1)N1C(=O)CCC1=O)N1CCN(c2cccc(OC(F)(F)F)c2)CC1 [(R)-10, (R)-1-(2-Oxo-1-phenyl-2-(4-(3-(trifluoromethoxy)phenyl)piperazin-1-yl)ethyl)pyrrolidine-2,5-dione]	< 60		> 150		12.8		168.2 to 169.1	22.6	100	100			50
O=C([C@H](c1ccccc1)N1C(=O)CCC1=O)N1CCN(c2cccc(C(F)(F)F)c2)CC1 [(S)-6, (S)-1-(2-Oxo-1-phenyl-2-(4-(3-(trifluoromethyl)phenyl)piperazin-1-yl)ethyl) pyrrolidine-2,5-dione]	75.4	¾	> 300	¼	> 130			68.5		50	¾		
